Test results reported in ChEMBL document CHEMBL1135048, “Synthesis and biological evaluation of 2-indolyloxazolines as a new class of tubulin polymerization inhibitors. Discovery of A-289099 as an orally active antitumor agent” (Bioorg Med Chem Lett, 2002).
≈ marks a conversion by molar mass, not a printed value. One block for each compound: values may come before it.

Legend:
[1] = Oral bioavailability in rat (dose single 10 mg/kg); type: ADME, organism-based; conditions: in vivo
[2] = tested on: HCT-15; assay: Antiproliferative activity against the MDR positive human colon adenocarcinoma cell line HCT-15; type: functional, cell-based
[3] = tested on: NCI-H460; assay: Antiproliferative activity against the human non small cell lung carcinoma cell line NCI-H460; type: functional, cell-based
[4] = Area under curve value in monkey at a dose of 5 mg/kg; type: ADME, organism-based; parameters: dose 5 mg/kg; conditions: cercopithecidae, in vivo
[5] = Half life period in dog after 5 mg/kg dose; type: ADME, organism-based, Canis lupus familiaris; parameters: dose 5 mg/kg; conditions: in vivo
[6] = Area under curve value in mouse at a dose of 10 mg/kg; type: ADME, organism-based; parameters: dose 10 mg/kg; conditions: in vivo
[7] = Oral bioavailability in dog (dose 5 mg/kg); type: ADME, organism-based, Canis lupus familiaris; conditions: in vivo
[8] = Oral bioavailability in rat (dose 5 mg/kg; type: ADME, organism-based; conditions: in vivo
[9] = Oral bioavailability in mouse (dose 10 mg/kg); type: ADME, organism-based; conditions: in vivo
[10] = Half life period in rat after 5 mg/Kg dose; type: ADME, organism-based; conditions: in vivo
[11] = Area under curve value in rat at a dose of 5 mg/kg; type: ADME, organism-based; parameters: dose 5 mg/kg; conditions: in vivo
[12] = (§1) Inhibition of bovine brain microtubule polymerization; type: functional, Bos taurus
[13] = Half life period in monkey after 5 mg/kg dose; type: ADME, organism-based; parameters: dose 5 mg/kg; conditions: cercopithecidae, in vivo
[14] = Oral bioavailability in monkey (dose 5 mg/kg); type: ADME, organism-based; conditions: cercopithecidae, in vivo
[15] = Area under curve value in dog at a dose of 5 mg/kg; type: ADME, organism-based, Canis lupus familiaris; parameters: dose 5 mg/kg; conditions: in vivo
[16] = Half life period in mouse after 10 mg/Kg dose; type: ADME, organism-based; conditions: in vivo
[17] = species: Bos taurus; assay: as §1; type: functional
[18] = molecular target: T1, Tubulin beta chain (Bos taurus, UniProt Q6B856); assay: Activity towards binding at colchicine site of bovine brain tubulin
[19] = tested on: A549; assay: Activity against human lung cancer with mutated beta-tubulin (A549-T2415); type: functional, cell-based
[20] = Half life period in rat after 5 mg/kg dose; type: ADME, organism-based; parameters: dose 5 mg/kg; conditions: in vivo
[21] = Half life period in mouse after 10 mg/kg dose; type: ADME, organism-based; parameters: dose 10 mg/kg; conditions: in vivo
[22] = Partition coefficient of compound; type: physicochemical; conditions: octanol/water
[23] = Solubility of compound in pH 7.4 phosphate buffer; type: physicochemical
[24] = pKa of the compound; type: physicochemical
[25] = tested on: HCT-15; assay: Inhibitory concentration of compound against of microtubule […] in human HCT-15 colon carcinoma; type: functional, cell-based
[26] = tested on: Mus musculus; assay: Increase in life span of M5076 murine ovarian sarcoma bearing mice at a dose of 50 mg/Kg/day; type: functional
[27] = tested on: Mus musculus; assay: In vivo efficacy to delay 1 g volume of M5076 murine ovarian sarcoma formation in mice at a dose of 100 mg/Kg/day; type: functional
[28] = tested on: Mus musculus; assay: In vivo efficacy to delay 1 g volume of M5076 murine ovarian sarcoma formation in mice at a dose of 50 mg/Kg/day; type: functional
[29] = Solubility of compound in 0.1 M HCl; type: physicochemical; conditions: read-out: S
[30] = tested on: Mus musculus; assay: Increase in life span of M5076 murine ovarian sarcoma bearing mice at a dose of 100 mg/kg/day; type: functional
[31] = molecular target: T1, Tubulin beta chain; assay: Binding constant at colchicine site of bovine brain tubulin

T1 sequence (Q6B856 whole entry): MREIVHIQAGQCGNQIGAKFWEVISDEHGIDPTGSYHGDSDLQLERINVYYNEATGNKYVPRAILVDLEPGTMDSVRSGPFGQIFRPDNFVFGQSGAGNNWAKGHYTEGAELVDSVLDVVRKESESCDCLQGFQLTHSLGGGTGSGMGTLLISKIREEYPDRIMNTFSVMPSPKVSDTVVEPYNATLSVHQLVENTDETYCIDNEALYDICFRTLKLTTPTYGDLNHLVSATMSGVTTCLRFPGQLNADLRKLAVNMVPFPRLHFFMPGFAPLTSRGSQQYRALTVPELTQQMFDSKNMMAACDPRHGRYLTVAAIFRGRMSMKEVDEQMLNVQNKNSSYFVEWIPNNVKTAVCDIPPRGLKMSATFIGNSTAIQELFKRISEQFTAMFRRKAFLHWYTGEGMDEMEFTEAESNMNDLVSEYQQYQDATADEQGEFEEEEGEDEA

IC50 [2]: 170 nM
IC50 [3]: 210 nM
Compound: COc1cc(C2CN=C(c3ccc4c(c3)cc(C)n4C)O2)cc(OC)c1OC (centres undefined)

IC50 [2]: 15000 nM
IC50 [3]: 150000 nM
Compound: COc1cc(C2CN=C(c3cccc4ccn(C)c34)O2)cc(OC)c1OC (centres undefined)

AUC [4]: 890 ng·h/mL
half-life [5]: 2.9 h
AUC [6]: 400 ng·h/mL
bioavailability [7]: 7%
bioavailability [8]: 44%
bioavailability [9]: 21%
half-life [10]: 1.3 h
AUC [11]: 3040 ng·h/mL
IC50 [2]: 390 nM
IC50 [12]: 740000 nM
IC50 [3]: 460 nM
half-life [13]: 1.4 h
bioavailability [14]: 16.2%
AUC [15]: 330 ng·h/mL
half-life [16]: 1.3 h
Compound: COc1cc([C@@H]2CN=C(c3ccc4c(ccn4C)c3)O2)cc(OC)c1OC

IC50 [2]: 44000 nM
IC50 [3]: 37000 nM
Compound: COc1cc(C2CN=C(c3ccnc4ccccc34)O2)cc(OC)c1OC (centres undefined)

IC50 [2]: 510 nM
IC50 [3]: 810 nM
Compound: COc1cc(C2CN=C(c3ccc4c(c3)CCN4C)O2)cc(OC)c1OC (centres undefined)

bioavailability [1]: 0%
IC50 [2]: 61 nM
IC50 [3]: 57 nM
Compound: COc1cc(C2CN=C(c3cccc4[nH]ccc34)O2)cc(OC)c1OC (centres undefined)

bioavailability [1]: 0%
IC50 [2]: 540 nM
IC50 [3]: 470 nM
Compound: COc1cc(C2CN=C(c3cccc4cc[nH]c34)O2)cc(OC)c1OC (centres undefined)

bioavailability [1]: 0%
IC50 [2]: 280 nM
IC50 [3]: 420 nM
Compound: COc1cc(C2CN=C(c3ccc4ccn(C)c4c3)O2)cc(OC)c1OC (centres undefined)

bioavailability [1]: 2.5%
IC50 [2]: 37 nM
IC50 [3]: 87 nM
Compound: COc1cc(C2CN=C(c3cccc4c3ccn4C)O2)cc(OC)c1OC (centres undefined)

bioavailability [1]: 55.8%
IC50 [2]: 2900 nM
IC50 [3]: 2900 nM
Compound: COc1cc(C2CN=C(c3ccc4c(ccn4C4CC4)c3)O2)cc(OC)c1OC (centres undefined)

IC50 [2]: 160000 nM
IC50 [3]: 270000 nM
Compound: COc1cc(C2CN=C(c3cnc4ccccc4c3)O2)cc(OC)c1OC (centres undefined)

Further lines, the compound ahead of its results:

Compound: COCn1ccc2cc(C3=NCC(c4cc(OC)c(OC)c(OC)c4)O3)ccc21 (centres undefined)
bioavailability [1]: 34.3%
IC50 [2]: 480 nM
IC50 [3]: 680 nM

Compound: COc1cc(C2CN=C(c3ccc4[nH]cnc4c3)O2)cc(OC)c1OC (centres undefined)
IC50 [2]: 6400 nM
IC50 [3]: 7100 nM

Compound: COc1cc(C2CN=C(c3ccc4c(c3)nc(C)n4C)O2)cc(OC)c1OC (centres undefined)
IC50 [2]: 1300 nM
IC50 [3]: 1200 nM

Compound: COc1cc(C2CN=C(c3ccc4cc[nH]c4c3)O2)cc(OC)c1OC (centres undefined)
bioavailability [1]: 10.5%
IC50 [2]: 120 nM
IC50 [3]: 330 nM

Compound: COc1cc(C2CN=C(c3ccc4c(ccn4CC(F)(F)F)c3)O2)cc(OC)c1OC (centres undefined)
bioavailability [1]: 19.8%
IC50 [2]: 3800 nM
IC50 [3]: 4200 nM

Compound: COc1cc(C2CN=C(c3ccc4ncccc4c3)O2)cc(OC)c1OC (centres undefined)
IC50 [2]: 2400 nM
IC50 [3]: 3200 nM

Compound: COc1cc(C2CN=C(c3c[nH]c4ccccc34)O2)cc(OC)c1OC (centres undefined)
bioavailability [1]: 0%
IC50 [2]: 67 nM
IC50 [3]: 82 nM

Compound: COc1ccc(/C=C\c2cc(OC)c(OC)c(OC)c2)cc1O [COMBRETASTATIN A4]
IC50 [17]: 1600 nM

Compound: COc1cc(C2CN=C(c3cc4ccccc4n3C)O2)cc(OC)c1OC (centres undefined)
IC50 [2]: 660 nM
IC50 [3]: 1500 nM

Compound: COc1cc(C2CN=C(c3ccc4[nH]ccc4c3)O2)cc(OC)c1OC (centres undefined)
bioavailability [1]: 38.1%
IC50 [2]: 200 nM
IC50 [3]: 100 nM

Compound: COc1cc(C2CN=C(c3ccc4cc(C)cn4c3)O2)cc(OC)c1OC (centres undefined)
IC50 [2]: 520 nM
IC50 [3]: 520 nM

Compound: COc1cc(C2OC(c3ccc(N)c(C)c3)=NN2C(C)=O)cc(OC)c1OC (centres undefined)
IC50 [18]: 3400 nM

Compound: COc1cc(C2CN=C(c3ccc4nccn4c3)O2)cc(OC)c1OC (centres undefined)
IC50 [2]: 40000 nM
IC50 [3]: 16000 nM

Compound: CC(=O)O[C@H]1C(=O)[C@@]2(C)[C@H]([C@H](OC(=O)c3ccccc3)[C@]3(O)C[C@H](OC(=O)[C@H](O)[C@@H](NC(=O)c4ccccc4)c4ccccc4)C(C)=C1C3(C)C)[C@]1(OC(C)=O)CO[C@@H]1C[C@@H]2O [PACLITAXEL]
IC50 [3]: > 10 nM

Compound: COc1cc(C2CN=C(c3cc4ccccc4[nH]3)O2)cc(OC)c1OC (centres undefined)
bioavailability [1]: 40%
IC50 [2]: 150 nM
IC50 [3]: 350 nM

Compound: COc1cc(C2CN=C(c3ccc4cncn4c3)O2)cc(OC)c1OC (centres undefined)
IC50 [2]: 28000 nM
IC50 [3]: 100000 nM

Compound: COc1cc(C2CN=C(c3cn(C)c4ccccc34)O2)cc(OC)c1OC (centres undefined)
bioavailability [1]: 2.5%
IC50 [2]: 37 nM
IC50 [3]: 87 nM

Compound: COc1cc(C2CN=C(c3ccc4[nH]c(O)nc4c3)O2)cc(OC)c1OC (centres undefined)
IC50 [2]: 1200 nM
IC50 [3]: > 100000 nM

Compound: COc1cc2c(c(OC)c1OC)-c1ccc(OC)c(=O)cc1[C@@H](NC(C)=O)CC2 [COLCHICINE]
IC50 [2]: 140 nM
IC50 [3]: 46 nM

Compound: COc1cc([C@H]2CN=C(c3ccc4c(ccn4C)c3)O2)cc(OC)c1OC
AUC [4]: 1750 ng·h/mL
half-life [5]: 3.3 h
IC50 [19]: 6.3 nM
AUC [6]: 5690 ng·h/mL
bioavailability [7]: 6.5%
bioavailability [8]: 17.1%
bioavailability [9]: 15.1%
half-life [20]: 2.1 h
half-life [21]: 1.1 h
AUC [11]: 7180 ng·h/mL
logD [22]: 3.94
solubility [23]: 0.7 µg/mL (≈ 1.91 µM)
pKa [24]: 5
Concentration [25]: 44 nM
IC50 [2]: 8.6 nM
ILS at 50 mg/kg/day [26]: 139%
Mean tumor delay [27]: 28.4 days
Mean tumor delay [28]: 19 days
IC50 [12]: 2300 nM
IC50 [3]: 6.2 nM
half-life [13]: 1.3 h
solubility [29]: 1270 µg/mL (≈ 3470 µM)
bioavailability [14]: 18.6%
AUC [15]: 160 ng·h/mL
ILS at 100 mg/kg/day [30]: 206%

Compound: COc1cc(C2CN=C(c3ccc4c(ccn4C)c3)O2)cc(OC)c1OC (centres undefined)
bioavailability [1]: 34.7%
IC50 [2]: 16 nM
IC50 [3]: 14 nM

Compound: CC[C@]1(O)C[C@@H]2CN(CCc3c([nH]c4ccccc34)[C@@](C(=O)OC)(c3cc4c(cc3OC)N(C)[C@H]3[C@@](O)(C(=O)OC)[C@H](OC(C)=O)[C@]5(CC)C=CCN6CC[C@]43[C@@H]65)C2)C1 [VINBLASTINE]
IC50 [2]: 43 nM
IC50 [12]: 1000 nM
IC50 [3]: 3.4 nM
Ki [31]: > 100000 nM

Compound: CCn1ccc2cc(C3=NCC(c4cc(OC)c(OC)c(OC)c4)O3)ccc21 (centres undefined)
bioavailability [1]: 11.1%
IC50 [2]: 70 nM
IC50 [3]: 49 nM

Compound: COc1cc(C2CN=C(c3ccc4c(ccn4S(C)(=O)=O)c3)O2)cc(OC)c1OC (centres undefined)
IC50 [2]: 16300 nM
IC50 [3]: 8180 nM
